Measured values as given in patent US10196401B2, “Spiro-lactam NMDA receptor modulators and uses thereof” (Aptinyx Inc., priority 2016, dated 2019).

Columns and labels:
rats = assay: Positive emotional learning (PEL) test, rat 50-kHz ultrasonic vocalizations (USVs); assay type: in vivo
Method: Experiments were conducted as described in Burgdorf et al., “The effect of selective breeding for differential rates of 50-kHz ultrasonic vocalizations on emotional behavior in rats,” Devel. Psychobiol., 51:34-46 (2009). Rat 50-kHz ultrasonic vocalization (hedonic USVs) is a validated model for the study of positive affective state and is best elicited by rough-and-tumble play.
The PEL assay measures the acquisition of positive (hedonic) 50-kHz ultrasonic vocalizations (USVs) to a social stimulus, heterospecific rough and tumble play stimulation. Heterospecific rough-and-tumble play stimulation was administered by the experimenter's right hand. […] High frequency ultrasonic vocalizations (USVs) were recorded and analyzed by sonogram with Avasoft SASlab Pro (Germany) as previously described by Burgdorf et al., “Positive emotional learning is regulated in the medial prefrontal cortex by GluN2B-containing NMDA receptors,” Neuroscience, 192:515-523 (2011). Frequency modulated 50-kHz USVs that occurred during each of the no-stimulation periods were quantified to measure PEL. […] Positive emotional learning was measured during the conditioned stimulus (CS) trials preceding the tickle unconditioned stimulus (UCS) trials. […] Running speed for animals to self administer tickling at the end of the 3 min session was also measured. […]

Sprague Dawley rats [1] = assay: Porsolt forced swim test; assay type: in vivo, rat; details: compared to vehicle group
Method: A non-clinical in vivo pharmacology study (Porsoit assay) was performed to measure antidepressant-like effects. A negative control (0.5% sodium carboxymethyl cellulose in 0.9% sterile saline vehicle) and a positive control (Compound D) were used to compare against Compound A and Compound B. The study allowed for the construction of a dose-response curve of the effects of each compound on the Porsolt forced swim test as assessed by the rats' response (reduced floating time) during a 5-minute swimming test.
(§1) Male 2-3 month old Sprague Dawley rats were used (Harlan, Indianapolis, Ind.). Rats were housed in Lucite cages with aspen wood chip bedding, maintained on a 12:12 light:dark cycle (lights on at 5 AM), and given ad libitum access to Purina lab chow (USA) and tap water throughout the study.
The Porsolt forced swim test adapted for use in rats was performed as described by Burgdorf et al., (The long-lasting antidepressant effects of rapastinel (GLYX-13) are associated with a metaplasticity process in the medial prefrontal cortex and hippocampus. Neuroscience 308:202-211, 2015). […] Animals were videotaped, and floating time as defined as the minimal amount of effort required to keep the animals head above water was scored offline by a blinded experimenter with high inter-rater reliability (Pearson's r>0.9). […]

Sprague Dawley rats [2] = assay: Bennett model of mechanical analgesia (paw withdrawal threshold); assay type: in vivo, rat; details: single dose of 10 mg/kg PO; 1 hr, 24 hrs and 1 week post-dosing
Method: Bennett G J, Xie Y K, “A peripheral mononeuropathy in rat that produces disorders of pain sensation like those seen in man,” Pain 33:87-107, 1988. […] Vehicle animals receive the surgery and then receive vehicle rather than test compound. Animals were tested 1 hr, 24 h and 1 wk post-test compound or vehicle administration.
as §1, with “used. Harlan was the supplier for all studies.” for “used (Harlan, Indianapolis, Ind.).”
Rats were anesthetized using inhaled isoflurane (2.5%). Spared nerve injury surgery was performed as previously described (Bennett and Xie, 1988). An incision (˜1.5 cm in length) was made with a scalpel blade dorsally through skin on the right hindlimb, parallel and posterior to femur. Using a small pointed hemostat, the biceps femoris and gluteus superficialis muscles were separated. Using curved blunt forceps, the common sciatic nerve was isolated and exposed. For the mechanical analgesia studies, the whole sciatic nerve was ligated. Using hemostats/forceps and chromic gut (5-0), the nerve was loosely ligated with a square knot; 3 ligatures, 1 mm apart were placed on the nerve. […] For the thermal analgesia studies, the common peroneal and tibial branches of the sciatic nerve were ligated and cut, and the sural branch was spared. See Decosterd I, Woolf C J, “Spared nerve injury: an animal model of persistent peripheral neuropathic pain,” Pain 87:149-158, 2000. Testing occurred 1-2 weeks post-surgery.
During testing, rats were acclimated to the surface of a suspended wire mesh grid (1 cm×1 cm, with the wire being 0.3 cm in diameter) for 15-20 min. Starting from the smallest, each Von Frey filament was pressed perpendicularly to the plantar surface of the affected (ipsilateral) hindpaw until slightly bent and then held for 6 second. […]

NMDAR2D = NMDAR2D (Homo sapiens, UniProt O15399); assay: Potentiation of [3H]MK-801 binding, NMDAR2D; parameters: species or system rat; details: for Conclusion / % 1 mM Glycine: NMDAR2D binding profile; for % 1 mM Glycine: relative to 1 mM glycine; for potentiation of [3H]MK-801 binding, subtype preference in words: NR2D, FIG. 2 / FIG. 6
Method: Assays were conducted as described by Moskal et al., “GLYX-13: a monoclonal antibody-derived peptide that acts as an N-rnethyl-D-aspartate receptor modulator,” Neuropharmacology, 49, 1077-87, 2005. The potentiation of [^3H]MK-801 binding (5 nrM; 22.5 Ci/mmol) to well washed rat cortical membranes (200 μg) was measured under non-equilibrium conditions (15 min @ 25° C.) in the presence of increasing concentrations of Compound A.
Assays were conducted as described above in Example 5, by Moskal et al. (2005).

Chain of NMDAR2D (O15399 28-1336, species assumed, other chains not shown): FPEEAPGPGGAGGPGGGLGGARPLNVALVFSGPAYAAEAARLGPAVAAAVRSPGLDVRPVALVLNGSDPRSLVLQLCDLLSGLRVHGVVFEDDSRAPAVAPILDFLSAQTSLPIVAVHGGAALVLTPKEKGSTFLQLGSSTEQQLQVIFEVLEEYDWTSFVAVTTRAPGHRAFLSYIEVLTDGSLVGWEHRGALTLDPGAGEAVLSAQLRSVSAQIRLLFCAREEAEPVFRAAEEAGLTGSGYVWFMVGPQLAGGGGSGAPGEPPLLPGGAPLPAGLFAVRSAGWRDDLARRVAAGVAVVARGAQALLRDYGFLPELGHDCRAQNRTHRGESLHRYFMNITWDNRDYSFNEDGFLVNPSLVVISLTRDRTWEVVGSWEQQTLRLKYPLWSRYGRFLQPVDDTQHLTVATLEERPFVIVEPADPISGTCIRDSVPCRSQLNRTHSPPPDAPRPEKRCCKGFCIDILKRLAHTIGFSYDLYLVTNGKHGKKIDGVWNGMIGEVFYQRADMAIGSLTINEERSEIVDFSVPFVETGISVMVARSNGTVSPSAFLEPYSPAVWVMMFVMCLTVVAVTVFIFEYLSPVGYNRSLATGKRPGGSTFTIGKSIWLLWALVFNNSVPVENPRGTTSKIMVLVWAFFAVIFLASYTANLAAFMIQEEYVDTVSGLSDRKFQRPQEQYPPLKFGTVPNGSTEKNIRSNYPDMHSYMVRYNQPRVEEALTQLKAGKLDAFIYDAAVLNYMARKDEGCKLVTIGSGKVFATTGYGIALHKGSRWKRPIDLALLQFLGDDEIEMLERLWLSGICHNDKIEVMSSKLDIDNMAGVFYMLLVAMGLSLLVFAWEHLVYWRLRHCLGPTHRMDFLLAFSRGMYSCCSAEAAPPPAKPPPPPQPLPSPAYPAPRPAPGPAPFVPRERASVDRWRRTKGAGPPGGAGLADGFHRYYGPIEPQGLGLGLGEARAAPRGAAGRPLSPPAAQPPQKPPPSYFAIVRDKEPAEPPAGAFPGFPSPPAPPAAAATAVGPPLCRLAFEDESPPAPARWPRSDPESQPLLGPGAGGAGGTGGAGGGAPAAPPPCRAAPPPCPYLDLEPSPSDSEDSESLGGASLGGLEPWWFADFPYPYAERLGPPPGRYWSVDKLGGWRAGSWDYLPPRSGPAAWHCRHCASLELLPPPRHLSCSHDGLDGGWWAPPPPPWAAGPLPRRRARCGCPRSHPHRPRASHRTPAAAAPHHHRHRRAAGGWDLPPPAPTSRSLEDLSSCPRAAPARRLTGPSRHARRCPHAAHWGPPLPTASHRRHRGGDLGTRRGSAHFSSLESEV

Compound | positive emotional learning as measured by rat USVs (rats; administered one hour prior to PEL testing) | floating time in the Porsolt test (antidepressant-like effect) (Sprague Dawley rats [1]; 10-1000 μg/kg PO, 1 h post-dosing) | mechanical analgesic effect in the Bennett model (Sprague Dawley rats [2]) | Conclusion (NMDAR2D) | % 1 mM Glycine (NMDAR2D) | potentiation of [3H]MK-801 binding, subtype preference in words (NMDAR2D) | positive emotional learning in the rat USVs test (rats; rat, in vivo) | floating time in the Porsolt test (antidepressant-like effect) (Sprague Dawley rats [1]; 0.1-10 μi/kg PO, 1 hour post-dosing)
CC(C)CN1CCC[C@]12CN([C@H](C(N)=O)[C@@H](C)O)C2=O [Compound A, (2S,3R)-3-hydroxy-2-((R)-5-isobutyl-1-oxo-2,5-diazaspiro[3.4]octan-2-yl)butanamide] | increases positive emotional learning | produces an antidepressant-like effect | produced a mechanical analgesic effect | WT2D no | 0% | no binding to NR2D |  | 
CC(C)CN1CCC[C@@]12CN([C@H](C(N)=O)[C@@H](C)O)C2=O [Compound B, (2S,3R)-3-hydroxy-2-((S)-5-isobutyl-1-oxo-2,5-diazaspiro[3.4]octan-2-yl)butanamide] |  |  | produced a mechanical analgesic effect | agonist | 66.21% | highly NR2B and NR2D preferring | increases positive emotional learning | produces an antidepressant-like effect
